Measurements: patent publication US6328728A, “Composition and method for enhancing electrotransport agent delivery” (Alza Corporation, priority 1997, dated 2001)

Experiment: Measurement of circular dichroism (mean residue ellipticity at 222 nm)
Type: physicochemical
Settings: 32° C.
Text: In general, the structure of a polypeptide in an aqueous buffered solution is in constant flux between portions thereof being random coil and alpha-helix configurations. For the polypeptides used in the following examples, the predominant structure is a random coil since the alpha-helix configuration is unstable in the absence of bound surfactant. According to the present invention adding surfactant to an aqueous solution of a polypeptide stabilizes the alpha-helix configuration. Circular dichroism is a measurement of the amount of the alpha-helix configured polypeptide present in the solution. Thus, circular dichroism provides an indirect measurement of the degree of binding of the surfactant to the polypeptide. (See, for example, Epand R. M., Epand R. F., Orlowski R. C., Schuleter R. J., Boni L. T. and Hui S. W., Biochemistry 22, 5074-5084 (1983); Hui, S. W., Epand R. M., Dell K. R., Epand R. F. and Orlowski R. C., Biochimica Biophysica Acta 772, 264-272 (1984); Epand R. M., Epand R. F., and Orlowski R. C., International Journal Peptide Protein Research 25 105-111; Epand R. M., Epand R. F., Orlowski R. C., Seyler J. K. and Colescott R. L., Biochemistry 25, 1964-1968; Epand R. M., Seyler J. K. and Orlowski R. C., European Journal Biochemistry 159, 125-127 (1986); Wiersema P. H., Loeb A. L. and Overbeek, J., Colloid Interface Science 22, 78-99 (1966)).
The surfactant/peptide circular dichroism (CD) spectra were obtained in a 2 mm path-length cell (110-Q-2 Model, AVIV, Lakewood, N.J.) at 32° C. The cell was initially loaded with 0.60 mL of a solution containing about 0.25 mg/mL of the peptide in 10 mM sodium chloroacetate (pH 3.5) or 10 mM sodium borate (pH 9.0). The buffers were selected to minimize the effect of the temperature on the pH of the solution and to minimize light absorption, thereby optimizing the signal-to-noise ratio (SNR). The peptide concentration was determined by spectrophotometry, with log-log correction for light scattering. The surfactant concentration was increased step-wise by titration of concentrated surfactant stock directly into the CD cell, followed by eight inversions of the cell, with the air bubble providing the mixing turbulence. After mixing, the cell was placed into the AVIV 62 CD spectrometer (AVIV, Lakewood, N.J.). In order to approximate temperature and chemical equilibrium, the sample remained in the spectrometer 5 minutes before a reading was taken. The CD spectrum was taken using a band pass of 1 nm, a data interval of 1 nm, and a data averaging time of 10 seconds. The mean residue ellipticity is the ellipticity divided by the path length in cm times the amino acid residue concentration in decimoles/cm^3. See Methods in Enzymology, Vol 130, pp 208-269, Yang et al, "Calculation of Protein Conformation from Circular Dichroism" (1986).
The measurement procedures described above were conducted on an aqueous solution of the protein insulinotropin, with TWEEN® 20 (MW=1126 g/mol) as the surfactant, with the following modifications. The insulinotropin donor solution concentration was 0.12 mg/mL. One test was run in 10 mM sodium borate at pH 9.0 and another test in 10 mM sodium chloroacetate at pH 3.5.
Fractional changes (%δ) are defined as the difference between the reading at a given surfactant concentration (Ec) minus the reading at zero surfactant (E0), the quantity divided by the difference between the reading at saturated surfactant concentration (Es) minus the reading at zero surfactant (E0), i. e. %δ=(Ec -E0)/(Es-E0).
The measurement procedures described earlier were conducted on an aqueous solution of insulinotropin as the agent, and TWEEN® 40 (molecular weight 1282 g/mol) as the surfactant with the following changes. The insulinotropin concentration was initially 0.29 mg/mL, and 0.21 mg/mL after the final TWEEN® 40 addition and the temperature was held at 32° C. Two tests were conducted at two different concentrations of TWEEN® 40. […]

Substance: Salmon Calcitonin [reference compound]
- Ellipticity (mean residue at 222 nm) (pH 3.5, 12 mM sodium chloroacetate, dodecyl sulfobetaine 0, calcitonin 0.087 mM): -4052 deg-cm^2 /dmol
- Ellipticity (mean residue at 222 nm) (pH 3.5, 12 mM sodium chloroacetate, dodecyl sulfobetaine 2.44 mM, calcitonin 0.085 mM): -4270 deg-cm^2 /dmol
- Ellipticity (mean residue at 222 nm) (pH 3.5, 12 mM sodium chloroacetate, dodecyl sulfobetaine 4.76 mM, calcitonin 0.083 mM): -7984 deg-cm^2 /dmol
- Ellipticity (mean residue at 222 nm) (pH 3.5, 12 mM sodium chloroacetate, dodecyl sulfobetaine 5.52 mM, calcitonin 0.082 mM): -8744 deg-cm^2 /dmol
- Ellipticity (mean residue at 222 nm) (pH 3.5, 12 mM sodium chloroacetate, dodecyl sulfobetaine 6.25 mM, calcitonin 0.081 mM): -9436 deg-cm^2 /dmol
- Ellipticity (mean residue at 222 nm) (pH 3.5, 12 mM sodium chloroacetate, dodecyl sulfobetaine 7.69 mM, calcitonin 0.080 mM): -10475 deg-cm^2 /dmol
- Ellipticity (mean residue at 222 nm) (pH 3.5, 12 mM sodium chloroacetate, dodecyl sulfobetaine 9.09 mM, calcitonin 0.079 mM): -11072 deg-cm^2 /dmol
- Ellipticity (mean residue at 222 nm) (pH 3.5, 12 mM sodium chloroacetate, dodecyl sulfobetaine 10.4 mM, calcitonin 0.078 mM): -11460 deg-cm^2 /dmol
- Ellipticity (mean residue at 222 nm) (pH 3.5, 12 mM sodium chloroacetate, dodecyl sulfobetaine 13.0 mM, calcitonin 0.076 mM): -11924 deg-cm^2 /dmol
- Ellipticity (mean residue at 222 nm) (pH 3.5, 12 mM sodium chloroacetate, dodecyl sulfobetaine 15.5 mM, calcitonin 0.073 mM): -12070 deg-cm^2 /dmol
- Ellipticity (mean residue at 222 nm) (pH 3.5, 12 mM sodium chloroacetate, dodecyl sulfobetaine 21.1 mM, calcitonin 0.069 mM): -12285 deg-cm^2 /dmol
- Ellipticity (mean residue at 222 nm) (pH 3.5, 12 mM sodium chloroacetate, dodecyl sulfobetaine 27.7 mM, calcitonin 0.063 mM): -12133 deg-cm^2 /dmol
- Ellipticity (mean residue at 222 nm) (pH 5.0, 4 mM piperazine-HCl, dodecyl sulfobetaine 0, calcitonin 0.076 mM): -3919 deg-cm^2 /dmol
- Ellipticity (mean residue at 222 nm) (pH 5.0, 4 mM piperazine-HCl, dodecyl sulfobetaine 0.83 mM, calcitonin 0.076 mM): -3950 deg-cm^2 /dmol
- Ellipticity (mean residue at 222 nm) (pH 5.0, 4 mM piperazine-HCl, dodecyl sulfobetaine 1.64 mM, calcitonin 0.075 mM): -4011 deg-cm^2 /dmol
- Ellipticity (mean residue at 222 nm) (pH 5.0, 4 mM piperazine-HCl, dodecyl sulfobetaine 3.23 mM, calcitonin 0.074 mM): -5209 deg-cm^2 /dmol
- Ellipticity (mean residue at 222 nm) (pH 5.0, 4 mM piperazine-HCl, dodecyl sulfobetaine 4.76 mM, calcitonin 0.073 mM): -7108 deg-cm^2 /dmol
- Ellipticity (mean residue at 222 nm) (pH 5.0, 4 mM piperazine-HCl, dodecyl sulfobetaine 6.25 mM, calcitonin 0.072 mM): -8348 deg-cm^2 /dmol
- Ellipticity (mean residue at 222 nm) (pH 5.0, 4 mM piperazine-HCl, dodecyl sulfobetaine 7.69 mM, calcitonin 0.071 mM): -9127 deg-cm^2 /dmol
- Ellipticity (mean residue at 222 nm) (pH 5.0, 4 mM piperazine-HCl, dodecyl sulfobetaine 9.77 mM, calcitonin 0.069 mM): -9915 deg-cm^2 /dmol
- Ellipticity (mean residue at 222 nm) (pH 5.0, 4 mM piperazine-HCl, dodecyl sulfobetaine 12.4 mM, calcitonin 0.067 mM): -10469 deg-cm^2 /dmol
- Ellipticity (mean residue at 222 nm) (pH 5.0, 4 mM piperazine-HCl, dodecyl sulfobetaine 18.4 mM, calcitonin 0.062 mM): -10999 deg-cm^2 /dmol
- Ellipticity (mean residue at 222 nm) (pH 5.0, 4 mM piperazine-HCl, dodecyl sulfobetaine 26.4 mM, calcitonin 0.056 mM): -11188 deg-cm^2 /dmol
- Ellipticity (mean residue at 222 nm) (pH 5.0, 4 mM piperazine-HCl, dodecyl sulfobetaine 35.8 mM, calcitonin 0.049 mM): -11051 deg-cm^2 /dmol
- Ellipticity (mean residue at 222 nm) (pH 6.5, 15 mM sodium cacodylate, dodecyl sulfobetaine 0, calcitonin 0.071 mmol/l): -4569 deg-cm^2 /dmol
- Ellipticity (mean residue at 222 nm) (pH 6.5, 15 mM sodium cacodylate, dodecyl sulfobetaine 3.28 mmol/l, calcitonin 0.070 mmol/l): -6725 deg-cm^2 /dmol
- Ellipticity (mean residue at 222 nm) (pH 6.5, 15 mM sodium cacodylate, dodecyl sulfobetaine 6.45 mmol/l, calcitonin 0.068 mmol/l): -10182 deg-cm^2 /dmol
- Ellipticity (mean residue at 222 nm) (pH 6.5, 15 mM sodium cacodylate, dodecyl sulfobetaine 9.52 mmol/l, calcitonin 0.067 mmol/l): -11095 deg-cm^2 /dmol
- Ellipticity (mean residue at 222 nm) (pH 6.5, 15 mM sodium cacodylate, dodecyl sulfobetaine 12.5 mmol/l, calcitonin 0.066 mmol/l): -11386 deg-cm^2 /dmol
- Ellipticity (mean residue at 222 nm) (pH 6.5, 15 mM sodium cacodylate, dodecyl sulfobetaine 18.2 mmol/l, calcitonin 0.064 mmol/l): -11744 deg-cm^2 /dmol
- Ellipticity (mean residue at 222 nm) (pH 6.5, 15 mM sodium cacodylate, dodecyl sulfobetaine 28.6 mmol/l, calcitonin 0.061 mmol/l): -11862 deg-cm^2 /dmol
- Ellipticity (mean residue at 222 nm) (pH 6.5, 15 mM sodium cacodylate, dodecyl sulfobetaine 42.1 mmol/l, calcitonin 0.056 mmol/l): -11844 deg-cm^2 /dmol
